Values of other authors as cited in patent publication US20080069909A1, “MENOPAUSE DISORDER SYNERGISTIC PHYTO-NUTRACEUTICAL COMPOSITION” (priority 2006, published 2008).
Where two headings read alike, the source gives them in different places.

Experiments:
[1] = system: bacterial resistance mechanism (multidrug pump)
beta-estrogenic receptor = beta-estrogenic receptor (Homo sapiens, UniProt Q92731)
Sequence of beta-estrogenic receptor (Q92731 whole entry): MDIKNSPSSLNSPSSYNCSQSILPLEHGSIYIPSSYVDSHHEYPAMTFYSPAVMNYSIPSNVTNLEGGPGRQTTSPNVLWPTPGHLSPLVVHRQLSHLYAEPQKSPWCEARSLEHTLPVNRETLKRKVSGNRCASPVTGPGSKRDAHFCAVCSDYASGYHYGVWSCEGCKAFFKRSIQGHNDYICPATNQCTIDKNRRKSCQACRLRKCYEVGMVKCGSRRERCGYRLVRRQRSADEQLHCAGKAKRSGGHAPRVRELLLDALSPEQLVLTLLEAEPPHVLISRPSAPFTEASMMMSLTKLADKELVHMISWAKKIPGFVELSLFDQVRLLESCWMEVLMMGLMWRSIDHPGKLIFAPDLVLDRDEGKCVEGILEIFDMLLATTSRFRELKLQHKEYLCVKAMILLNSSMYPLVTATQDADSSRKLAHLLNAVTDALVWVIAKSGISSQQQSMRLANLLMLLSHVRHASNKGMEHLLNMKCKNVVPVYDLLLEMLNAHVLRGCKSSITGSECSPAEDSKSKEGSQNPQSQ

Compound: COc1cc([C@H]2Oc3cc(-c4cc(=O)c5c(O)cc(O)cc5o4)cc(OC)c3O[C@@H]2CO)ccc1O (racemic) [5′-MHC, 5′-methoxyhydnocarpin]
- activity of herbal Berberine alkaloids ([1]; by the action of 5′-MHC): strongly potentiated
- accumulation of berberine in the cells ([1]; in the presence of 5′-MHC): strong increase

Compound: CCCCC/C=C\C/C=C\CCCCCCCC(=O)O [Linoleic acid]
- induction of estrogen inducible genes (estrogen inducible genes): induce certain estrogen inducible genes
- binding to estrogen receptors (estrogen receptors): can bind to estrogen receptors

Compound: COc1cc2oc(-c3ccc(O)cc3)c(OC)c(=O)c2c(O)c1OC [Penduletin]
- receptor ligand (beta-estrogenic receptor): specific ligands

Compound: O=c1cc(-c2ccc(O)cc2)oc2cc(O)cc(O)c12 [apigenin]
- receptor ligand (beta-estrogenic receptor): specific ligands

Compound: O=c1c(-c2ccc(O)cc2)coc2c([C@@H]3O[C@H](CO)[C@@H](O)[C@H](O)[C@H]3O)c(O)ccc12 [puerarin]
- estrogen-like effect (estrogen receptor; estrogen-deficiency animals): weak estrogen-like effect
- estrogen-like effect (estrogen receptor; high-estrogen-level animals): antiestrogen-like effect
- estrogen-like effect (estrogen receptor; normal-estrogen level animals): no effect
